A word on the IC50: it is the concentration that inhibits the measured activity by half.

This is an account of results in US5585492A, “LTA4 Hydrolase inhibitors” (priority 1994, dated 1996).

The test system of this experiment is LTB4 production in human blood. In words: Inhibition of Calcium Ionophore-Induced LTB4 Production in Human Blood (HWB). The experiment is classed as cell-based. The settings on record: Homo sapiens, human whole blood, A23187 20 mcg/ml; read-out: Inhibition of Calcium Ionophore-Induced LTB4 Production in Human Blood IC50 HWB. As to the method:
One or more concentrations of the leukotriene A4 hydrolass inhibitor compounds being tested were prepared (diluted in DMSO) and 2 μl added and gently mixed with the diluted whole blood. After incubating for 15 minutes at 37° C. in a humidified incubator, calcium ionophore A23187 (Sigma Chemical Co., St. Louis, Mo.) was added to a final concentration of 20 mcg/ml and the incubation continued under the same conditions for an additional 10 minutes to allow LTB4 formation. The reaction was terminated by centrifugation (833 g, 10 minutes at 4° C.) and supernatant were analyzed for LTB4 and thromboxane by commercially available enzyme-linked immunoassays (Caymen Chemical Co., Ann Arbor, Mich.) according to the manufacturer's instructions. The IC50 of each test compound was determined from the amount of inhibition of LTB4 production as compared to an essentially identical assay in which no inhibitor compound was present.

`c1ccc(Cc2ccc(OCCn3cnc4ccccc43)cc2)cc1` [Example 339]: the IC50 stood at 13100 nM. On to `c1ccc(Cc2ccc(OCCCn3cnc4cccnc43)cc2)cc1` [Example 341A], for which the IC50 stood at 8900 nM. `c1ccc(Cc2ccc(OCCCn3cnc4ncccc43)cc2)cc1` [Example 341B]: the IC50 came to 930 nM. Then `c1ccc(Cc2ccc(OCCn3ccc4ncccc43)cc2)cc1` [Example 342], with 2120 nM; and `c1ccc(Oc2ccc(OCCn3cnc4ccccc43)cc2)cc1` [Example 344], with 13500 nM. `c1ccc(COc2ccc(OCCn3cnc4ncccc43)cc2)cc1` [Example 346B]: the IC50 is 3570 nM. On to `c1ccc(COc2ccc(OCCn3cccc4ncnc3-4)cc2)cc1` [Example 346C], for which the IC50 came to 6690 nM. In the case of `c1ccc(COc2ccc(OCCn3cnc4ccncc43)cc2)cc1` [Example 347A], the half-maximal inhibitory concentration (IC50) stood at 7050 nM.

As for `c1ccc(COc2ccc(OCCn3cnc4cnccc43)cc2)cc1` [Example 347B], the IC50 worked out at 5700 nM. With `c1ccc(COc2ccc(OCCn3ccc4ncnc-4c3)cc2)cc1` [Example 347C], the half-maximal inhibitory concentration (IC50) stood at 380 nM. The same measure for `c1ccc(Oc2ccc(OCCn3cnc4cccnc43)cc2)cc1` [Example 348A]: 5700 nM; for `c1ccc(Oc2ccc(OCCn3cnc4ncccc43)cc2)cc1` [Example 348B]: 560 nM. Then `c1ccc(Oc2ccc(OCCn3cccc4ncnc3-4)cc2)cc1` [Example 348C], with 540 nM. Regarding `c1ccc(Oc2ccc(OCCn3cnc4ccncc43)cc2)cc1` [Example 349A], the half-inhibitory concentration (IC50) amounted to 790 nM. Consider `c1ccc(Oc2ccc(OCCn3cnc4cnccc43)cc2)cc1` [Example 349B], for which the IC50 was determined as 320 nM.

In the case of `c1ccc(Oc2ccc(OCCn3ccc4ncnc-4c3)cc2)cc1` [Example 349C], the IC50 came out at 200 nM. Then `c1ccc(Oc2ccc(OCCCn3cnc4cccnc43)cc2)cc1` [Example 350A], with 13600 nM; and `c1ccc(Oc2ccc(OCCCn3cnc4ncccc43)cc2)cc1` [Example 350B], with 950 nM. The same measure for `c1ccc(Oc2ccc(OCCCn3cccc4ncnc3-4)cc2)cc1` [Example 350C]: 1670 nM; for `c1ccc(Oc2ccc(OCCCn3cnc4ccncc43)cc2)cc1` [Example 351A]: 2720 nM; for `c1ccc(Oc2ccc(OCCCn3cnc4cnccc43)cc2)cc1` [Example 351B]: 2050 nM.

Take `c1ccc(Oc2ccc(OCCCn3ccc4ncnc-4c3)cc2)cc1` [Example 351C]: the IC50 was 360 nM. Then `Fc1ccc(Oc2ccc(OCCn3cnc4ncccc43)cc2)cc1` [Example 354B], with 600 nM; and `Fc1ccc(Oc2ccc(OCCn3cccc4ncnc3-4)cc2)cc1` [Example 354C], with 1180 nM. For the compound `Fc1ccc(Oc2ccc(OCCn3cnc4ccncc43)cc2)cc1` [Example 355A], the IC50 worked out at 2230 nM. Take `Fc1ccc(Oc2ccc(OCCn3cnc4cnccc43)cc2)cc1` [Example 355B]: the concentration for half-maximal inhibition (IC50) turned out to be 910 nM. Take `Fc1ccc(Oc2ccc(OCCn3ccc4ncnc-4c3)cc2)cc1` [Example 355C]: the half-maximal inhibitory concentration (IC50) came out at 210 nM. Consider `c1ccc(Cc2ccc(OCCCn3cnc4ccncc43)cc2)cc1` [Example 356A], for which the IC50 was found to be 1280 nM. The same measure for `c1ccc(Cc2ccc(OCCCn3cnc4cnccc43)cc2)cc1` [Example 356B]: 750 nM; for `c1ccc(Cc2ccc(OCCCn3ccc4ncnc-4c3)cc2)cc1` [Example 356C]: 340 nM. The same measure for `c1ccc(Cc2ccc3c(c2)CC(Cn2cnc4ccncc42)O3)cc1` (stereo not shown) [Example 358A]: 152 nM. In the case of `c1ccc(Cc2ccc3c(c2)CC(Cn2cccc4ncnc2-4)O3)cc1` (stereo not shown) [Example 359C], the IC50 was 4200 nM. Then `[O-][n+]1cccc2c1ncn2CCOc1ccc(Cc2ccccc2)cc1` [Example 363], with 57 nM; and `NC(=O)C1CCN(CCOc2ccc(Cc3ccccc3)s2)CC1` [Example 369], with 1530 nM. For the compound `O=C(O)C1CCN(CCOc2ccc(Cc3ccccc3)s2)CC1` [Example 371], the IC50 turned out to be 650 nM. With `OCC1CCCN1CCOc1ccc(Cc2ccccc2)cc1` (stereo not shown) [Example 385], the IC50 stood at 210 nM. Then `CC1CCC(C)N1CCOc1ccc(Cc2ccccc2)cc1` (stereo not shown) [Example 399], with 220 nM. Take `CC(CN1CCCCC1)Oc1ccc(Cc2ccccc2)cc1` (stereo not shown) [Example 403]: the IC50 amounted to 3800 nM. The same measure for `CC(CN1CCCCCC1)Oc1ccc(Cc2ccccc2)cc1` (stereo not shown) [Example 404]: 2750 nM; for `CCC(CN1CCCC1)Oc1ccc(Cc2ccccc2)cc1` (stereo not shown) [Example 405]: 2010 nM.

For the compound `c1ccc(Cc2ccc(OC(Cc3ccccc3)CN3CCCC3)cc2)cc1` (stereo not shown) [Example 406], the IC50 is 4000 nM. With `C#CC(CC(=O)OCC)NCCCOc1ccc(Cc2ccccc2)cc1` (stereo not shown) [Example 407], the concentration for half-maximal inhibition (IC50) is 707 nM. The same measure for `COC(=O)CCN(C)CCCOc1ccc(Cc2ccccc2)cc1` [Example 413]: 42 nM; for `CCOC(=O)CCN(CCCOc1ccc(Cc2ccccc2)cc1)Cc1cccnc1` [Example 414]: 830 nM; for `CC(C)(O)CCNCCCOc1ccc(Cc2ccccc2)cc1` [Example 416]: 1970 nM. Turning to `NNC(=O)C1CCN(CCOc2ccc(Cc3ccccc3)cc2)CC1` [Example 419], the IC50 came out at 120 nM.

As to `NC(=O)CCNC(=O)C1CCN(CCOc2ccc(Cc3ccccc3)cc2)CC1` [Example 421], the IC50 was 800 nM. Then `CNC(=O)CCNCCCOc1ccc(Cc2ccccc2)cc1` [Example 422], with 660 nM; and `NC(=O)CCNCCCOc1ccc(Cc2ccccc2)cc1` [Example 423], with 700 nM. Then `O=C(CCNCCCOc1ccc(Cc2ccccc2)cc1)N1CCOCC1` [Example 424], with 850 nM; and `NC(=O)C1(O)CCN(CCOc2ccc(Cc3ccccc3)cc2)CC1` [Example 427], with 532 nM; and `O=C(Nc1ccccc1)OC[C@@H]1CCCN1CCOc1ccc(Cc2ccccc2)cc1` [Example 428], with 6600 nM. For `O=C(O)[C@@H]1CCCN1CCCOc1ccc(Cc2ccccc2)cc1` [Example 430], the IC50 came out at 290 nM.

As to `CC(CN(C)CCCOc1ccc(Cc2ccccc2)cc1)C(=O)O` (stereo not shown) [Example 432], the IC50 amounted to 630 nM. With `O=C(O)C1C2CN(CCOc3ccc(Cc4ccccc4)cc3)CC21` (stereo not shown) [Example 435], the 50% inhibitory concentration (IC50) is 86 nM. The same measure for `O=C(O)C1CCN(CCOc2ccc(Cc3cccc(F)c3)cc2)CC1` [Example 436]: 550 nM; for `O=C(O)C1CCN(CCOc2ccc(Cc3cccs3)cc2)CC1` [Example 437]: 693 nM; for `CC1CC(C#N)CCN1CCOc1ccc(Cc2ccccc2)cc1` (stereo not shown) [Example 444]: 900 nM. The same measure for `CC1CC(C(N)=NO)CCN1CCOc1ccc(Cc2ccccc2)cc1` (stereo not shown) [Example 445]: 367 nM. As to `NC(=NO)C1CCN(CC2Cc3cc(Cc4ccccc4)ccc3O2)CC1` (stereo not shown) [Example 446], the IC50 stood at 160 nM.

Regarding `O=c1[nH]c(C2CCN(CCOc3ccc(Cc4ccccc4)cc3)CC2)no1` [Example 448], the IC50 came to 825 nM. The same measure for `N=C(N)C1CCN(CCOc2ccc(Cc3ccccc3)cc2)CC1` [Example 449]: 913 nM; for `O=C(CCl)NC1CCN(CCOc2ccc(Cc3ccccc3)cc2)C1` (stereo not shown) [Example 454]: 610 nM. The same measure for `NC1CCN(CCOc2ccc(Cc3ccccc3)cc2)CC1` [Example 455]: 180 nM; for `NC(=S)N1CCN(CCOc2ccc(Cc3ccccc3)cc2)CC1` [Example 458]: 1390 nM. The same measure for `NCCOc1ccc(Cc2ccccc2)cc1` [Example 496]: 280 nM; for `C1=CC2CC1CN2CCOc1ccc(Cc2ccccc2)cc1` (stereo not shown) [Example 497]: 216 nM; for `c1ccc(Cc2ccc(OCCN3CC4CCC3C4)cc2)cc1` (stereo not shown) [Example 499]: 220 nM.

`c1ccc(Cc2ccc(OCCN3CC4CCC3CC4)cc2)cc1` [Example 500]: the half-inhibitory concentration (IC50) is 142 nM. For `COC(=O)C1CC2CC1CN(CCOc1ccc(Cc3ccccc3)cc1)C2` (stereo not shown) [Example 504], the IC50 came to 7700 nM.
